{"source": "paper PMC5355960", "about": "“Specific inhibition of CK2α from an anchor outside the active site” (Chemical Science, 2016)", "key": {"[1]": {"molecular_target": "CK2α (Homo sapiens, UniProt P68400)", "sequence (P68400 2-329)": "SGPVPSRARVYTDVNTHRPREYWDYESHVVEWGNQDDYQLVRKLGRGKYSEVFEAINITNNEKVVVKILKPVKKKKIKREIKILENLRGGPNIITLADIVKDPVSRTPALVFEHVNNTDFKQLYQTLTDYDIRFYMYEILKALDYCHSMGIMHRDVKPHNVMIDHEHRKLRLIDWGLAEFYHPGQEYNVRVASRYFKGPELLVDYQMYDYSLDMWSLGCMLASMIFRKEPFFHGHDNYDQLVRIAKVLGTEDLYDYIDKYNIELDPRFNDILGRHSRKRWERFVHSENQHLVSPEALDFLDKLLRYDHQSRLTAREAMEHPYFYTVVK", "settings": "for ΔH / ΔS: ITC"}, "[2]": {"tested_on": "HCT116 cells", "experiment": "cells", "settings": "Homo sapiens, HCT-116, 72 h"}, "[3]": {"tested_on": "A549 cells", "experiment": "cells", "settings": "Homo sapiens, A549, 72 h"}, "[4]": {"tested_on": "A549 cells", "settings": "72 hours"}, "[5]": {"tested_on": "Jurkat cells", "experiment": "cells", "settings": "Homo sapiens, 72 h"}, "[6]": {"tested_on": "Jurkat cells", "settings": "72 hours"}, "[7]": {"tested_on": "Cdc37 phosphoserine 13"}, "[8]": {"tested_on": "AKT1 phosphoserine 129"}, "[9]": {"tested_on": "HCT116, Jurkat and A549 cells", "settings": "A549 vs IC50 (for pro-CAM4066: IC50 of CAM4066)"}, "[10]": {"tested_on": "HCT116 cells", "settings": "72 hours"}, "[11]": {"tested_on": "PIM1", "settings": "read-out: IC50 PIM1; ref J.Med. Chem. (2011) 54:2:635; cited from earlier work"}, "[12]": {"tested_on": "CLK3", "settings": "read-out: IC50 CLK3; ref J.Med. Chem. (2011) 54:2:635; cited from earlier work"}, "[13]": {"tested_on": "HIPK3", "settings": "read-out: IC50 HIPK3; ref J.Med. Chem. (2011) 54:2:635; cited from earlier work"}, "[14]": {"tested_on": "CK2α", "settings": "read-out: IC50 CK2α; ref J.Med. Chem. (2011) 54:2:635; cited from earlier work"}, "[15]": {"tested_on": "DAPK3", "settings": "read-out: IC50 DAPK3; ref J.Med. Chem. (2011) 54:2:635; cited from earlier work"}, "[16]": {"tested_on": "FLT3", "settings": "read-out: IC50 FLT3; ref J.Med. Chem. (2011) 54:2:635; cited from earlier work"}, "[17]": {"tested_on": "238 kinases", "settings": "cited from earlier work"}, "[18]": {"tested_on": "PIM1", "settings": "read-out: IC50 PIM1; ref Biorg. Med. Chem. Lett. (2011) 21;22;6687; cited from earlier work"}, "[19]": {"tested_on": "CDK1/Cyclin B", "settings": "read-out: IC50 CDK1/Cyclin B; ref J.Med. Chem. (2011) 54:2:635; cited from earlier work"}, "[20]": {"tested_on": "CDK2/Cyclin E", "settings": "read-out: IC50 CDK2/Cyclin E; ref Eur. J. Med. Chem. (2014) 78:217-224; cited from earlier work"}, "[21]": {"tested_on": "PIM2", "settings": "read-out: IC50 PIM2; ref Biorg. Med. Chem. Lett. (2011) 21;22;6687; cited from earlier work"}, "[22]": {"tested_on": "CLK3", "settings": "read-out: IC50 CLK3; ref PLOS ONE (2014) 9:4; cited from earlier work"}, "[23]": {"tested_on": "CLK1", "settings": "read-out: IC50 CLK1; ref PLOS ONE (2014) 9:4; cited from earlier work"}, "[24]": {"tested_on": "TBK1", "settings": "read-out: IC50 TBK1; ref J.Med. Chem. (2011) 54:2:635; cited from earlier work"}, "[25]": {"tested_on": "102 kinases", "settings": "cited from earlier work"}, "[26]": {"settings": "HCT116, 2 × GI50, all time points (24, 48, 72 hours)"}}, "note": "Like-named read-outs stand apart in the source and are kept apart here.", "data": [{"smiles": "Cc1ccc(O)c(C(=O)O)c1", "note": "[compound 5]", "values": [{"measurement": "ΔH", "setting": "[1]", "result": -7.722, "unit": "kcal/mol"}, {"measurement": "ΔS", "setting": "[1]", "result": -6.51, "unit": "cal/mol/deg"}]}, {"smiles": "COC(=O)c1cccc(NC(=O)CCNC(=O)CCNCc2ccc(-c3ccccc3)c(Cl)c2)c1", "note": "[pro-CAM4066]", "values": [{"measurement": "GI50", "setting": "[2]", "result": 9000, "unit": "nM"}, {"measurement": "GI50", "setting": "[3]", "result": 20000, "unit": "nM"}, {"measurement": "GI50", "setting": "[4]; listed as 8", "result": 20200, "unit": "nM"}, {"measurement": "GI50", "setting": "[5]", "result": 6000, "unit": "nM"}, {"measurement": "GI50", "setting": "[6]; listed as 8", "result": 6300, "unit": "nM"}, {"measurement": "inhibition of the phosphorylation of CDC37 Ser13", "setting": "[7]; HCT116, 2 × GI50, 48 and 72 hours", "result": "the inhibition did increase"}, {"measurement": "inhibition of the phosphorylation of CDC37 Ser13", "setting": "[7]; HCT116, 2 × GI50, 24 hours", "result": "no inhibition"}, {"measurement": "inhibition of the phosphorylation of AKT1 Ser129", "setting": "[8]; HCT116, 2 × GI50, 24 hours", "result": "approximately 50%"}, {"measurement": "drop-off in the GI50 compared to the IC50", "setting": "[9]", "result": "19-60 fold"}, {"measurement": "GI50", "setting": "[10]", "result": 8800, "unit": "nM"}]}, {"smiles": "O=C(O)c1ccc2c(c1)nc(Nc1cccc(Cl)c1)c1ccncc12", "note": "[CX4945]", "values": [{"measurement": "IC50", "setting": "[11]", "result": 46, "unit": "nM"}, {"measurement": "GI50", "setting": "[2]", "result": 4800, "unit": "nM"}, {"measurement": "GI50", "setting": "[3]", "result": 17000, "unit": "nM"}, {"measurement": "GI50", "setting": "[4]", "result": 16600, "unit": "nM"}, {"measurement": "GI50", "setting": "[5]", "result": 5000, "unit": "nM"}, {"measurement": "IC50", "setting": "[12]", "result": 41, "unit": "nM"}, {"measurement": "IC50", "setting": "[13]", "result": 45, "unit": "nM"}, {"measurement": "IC50", "setting": "[14]", "result": "[…]"}, {"measurement": "IC50", "setting": "[15]", "result": 17, "unit": "nM"}, {"measurement": "IC50", "setting": "[16]", "result": 55, "unit": "nM"}, {"measurement": "number of other kinases inhibited by 70% or greater", "setting": "[17]; 0.5 μM, screen size 238 kinases", "result": 26}, {"measurement": "number of other kinases inhibited with nanomolar IC50 values", "setting": "[17]", "result": "at least twelve"}, {"measurement": "Gini coefficient", "setting": "[17]; larger literature panel", "result": "[…]"}, {"measurement": "IC50", "setting": "[18]", "result": 48, "unit": "nM"}, {"measurement": "GI50", "setting": "[6]", "result": 4700, "unit": "nM"}, {"measurement": "inhibition of the phosphorylation of CDC37 Ser13", "setting": "[7]; HCT116, 2 × GI50, 24 hours", "result": "reduced inhibition"}, {"measurement": "inhibition of the phosphorylation of CDC37 Ser13", "setting": "[7]; [26]", "result": "very clear inhibition"}, {"measurement": "IC50", "setting": "[19]", "result": 56, "unit": "nM"}, {"measurement": "inhibition of the phosphorylation of AKT1 Ser129", "setting": "[8]; [26]", "result": "very clear inhibition"}, {"measurement": "GI50", "setting": "[10]", "result": 5000, "unit": "nM"}, {"measurement": "IC50", "setting": "[20]", "result": 1800, "unit": "nM"}, {"measurement": "IC50", "setting": "[21]", "result": 186, "unit": "nM"}, {"measurement": "IC50", "setting": "[22]", "result": 90, "unit": "nM"}, {"measurement": "IC50", "setting": "[23]", "result": 82, "unit": "nM"}, {"measurement": "IC50", "setting": "[24]", "result": 35, "unit": "nM"}]}, {"smiles": "Nc1cccc(C(=O)O)c1", "note": "[compound 6]", "values": [{"measurement": "detectable binding by ITC", "setting": "[1]", "result": "no inhibition of phosphorylation at 500 μM or detectable binding by ITC"}]}, {"smiles": "CCCOc1ccc(CN)cc1Cl.Cl", "note": "[compound 3]", "values": [{"measurement": "ΔH", "setting": "[1]", "result": -5.047, "unit": "kcal/mol"}, {"measurement": "ΔS", "setting": "[1]", "result": -2.28, "unit": "cal/mol/deg"}]}, {"smiles": "O=C(O)c1ccc2c(c1)nc(Nc1cccc(C(F)(F)F)c1)c1nc(NC3CC3)ncc12", "note": "[CX5279]", "values": [{"measurement": "number of other kinases inhibited by 70% or greater", "setting": "[25]; 0.5 μM, 102 kinases", "result": 4}, {"measurement": "Gini coefficient", "setting": "[25]; larger literature panel", "result": 0.755}]}]}
